The source of these data is the supplement of paper PMC11061612.

The test system of assay [1] is U-698-M. The assay can be described thus: combination Emax (second highest fraction inhibited in the dose matrix, 72 h); higher = more inhibition. As to conditions: B-Cell Non-Hodgkin's Lymphoma. The method in brief:
(§1)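 Cell lines in DMEM/F12 or RPMI with 10% FBS were plated in 1536-well plates, held 24 hours at 37°C, 5% CO2, then given two-drug dose matrices for 72 hours (DMSO typically 0.2%). Viability was read by CellTiter-Glo 2.0 luminescence and scaled as inhibition from 0 (vehicle wells) to 1 (blank wells). Combination Emax is the second-highest inhibition in the matrix; Bliss excess is observed combination effect minus expected EA + EB − EA·EB, EA and EB being single-agent effects.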

Assay [2] concerns U-698-M. The assay can be described thus: Bliss excess, mean over the matrix (fraction); higher = more synergy. As to conditions: U-[…], B-Cell Non-Hodgkin's Lymphoma. The method in brief:
as §1

Setting [3] is: first compound max 1 µM, partner max 3 µM, 7x7, may be a limit of the assay.
Setting [4] is: first compound max 1 µM, partner max 3 µM, 7x7.
Setting [5] is: first compound max 1 µM, partner max 0.3 µM, 7x7.
Setting [6] is: first compound max 10 µM, partner max 10 µM, 7x7.
Where [7] appears, read: first compound max 10 µM, partner max 0.3 µM, 7x7.
Setting [8] is: first compound max 10 µM, partner max 1 µM.
[9] abbreviates: first compound max 10 µM, partner max 1 µM, 7x7.

Each structure is given as a SMILES string.
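For Bliss excess, mean over the matrix in this document: after 72 h of two-drug dosing.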

Consider `Cc1c2c(nn1C)CSCc1cc(n(C)n1)CSc1cc(c3ccccc3c1)OCCCc1c(C(=O)O)n(C)c3c-2c(Cl)ccc13` [AZD5991] + C[C@@H](Nc1cc(F)cc(F)c1)c1cc(C(=O)N(C)C)cc2c(=O)cc(N3CCOCC3)oc12 [AZD8186], for which, in the assay with U-698-M [1] (setting [3]), the “combination Emax” value was found to be 1. Besides, the Bliss excess in the assay with U-698-M [2] (setting [4]) is -0.0258.
In the case of `Cc1c2c(nn1C)CSCc1cc(n(C)n1)CSc1cc(c3ccccc3c1)OCCCc1c(C(=O)O)n(C)c3c-2c(Cl)ccc13` [AZD5991] + Cc1cc2ncnn2cc1Nc1ncc2c(n1)n(C1CCOCC1)c(=O)n2C [AZD7648], in the assay on U-698-M [1] (first compound max 1 µM, partner max 10 µM, 7x7, may be a limit of the assay), the “combination Emax” value turned out to be 1. In addition, the Bliss excess in the assay on U-698-M [2] (first compound max 1 µM, partner max 10 µM, 7x7) was 0.0183.
Regarding `Cc1c2c(nn1C)CSCc1cc(n(C)n1)CSc1cc(c3ccccc3c1)OCCCc1c(C(=O)O)n(C)c3c-2c(Cl)ccc13` [AZD5991] + Cn1cnc2c(F)c(Nc3ccc(Br)cc3Cl)c(C(=O)NOCCO)cc21 [Selumetinib], the “combination Emax” value in the assay with U-698-M [1] (setting [3]) stood at 1. In the assay on U-698-M [2] (setting [4]), the Bliss excess was -0.0034.
For the compound `Cc1c2c(nn1C)CSCc1cc(n(C)n1)CSc1cc(c3ccccc3c1)OCCCc1c(C(=O)O)n(C)c3c-2c(Cl)ccc13` [AZD5991] + Nc1ccn([C@@H]2O[C@H](CO)[C@@H](O)C2(F)F)c(=O)n1 [Gemcitabine], in the assay with U-698-M [1] (setting [5]), the “combination Emax” value came to 0.966. In the assay on U-698-M [2] (setting [5]), the Bliss excess came to 0.0211.
As to `C[C@@H]1COCCN1c1cc(C2([S@](C)(=N)=O)CC2)nc(-c2ccnc3[nH]ccc23)n1` [AZD6738] + C1CC(C1)(C(=O)[O-])C(=O)[O-].N.N.[Pt+2] [Carboplatin], in the assay on U-698-M [1] (setting [6]), the “combination Emax” value came to 0.84. In the assay with U-698-M [2] (setting [6]), the Bliss excess was -0.0625.
For the compound `C[C@@H]1COCCN1c1cc(C2([S@](C)(=N)=O)CC2)nc(-c2ccnc3[nH]ccc23)n1` [AZD6738] + Nc1ccn([C@@H]2O[C@H](CO)[C@@H](O)C2(F)F)c(=O)n1 [Gemcitabine], the “combination Emax” value in the assay with U-698-M [1] (setting [7]) was determined as 0.871. For the same compound, the Bliss excess in the assay on U-698-M [2] (setting [7]) was determined as 0.0526.
Consider `C[C@@H]1COCCN1c1cc(C2([S@](C)(=N)=O)CC2)nc(-c2ccnc3[nH]ccc23)n1` [AZD6738] + O=C(c1cc(Cc2n[nH]c(=O)c3ccccc23)ccc1F)N1CCN(C(=O)C2CC2)CC1 [Olaparib], for which the “combination Emax” value with U-698-M [1] (setting [6]) amounted to 0.934. The Bliss excess in the assay with U-698-M [2] (setting [6]) is -0.0503.
For `Cc1cc2ncnn2cc1Nc1ncc2c(n1)n(C1CCOCC1)c(=O)n2C` [AZD7648] + C=CCn1c(=O)c2cnc(Nc3ccc(N4CCN(C)CC4)cc3)nc2n1-c1cccc(C(C)(C)O)n1 [AZD1775], the “combination Emax” value in the assay with U-698-M [1] (setting [8]) is 0.971. Moreover, in the assay on U-698-M [2] (setting [8]), the Bliss excess was -0.0156.
In the case of `Cc1cc2ncnn2cc1Nc1ncc2c(n1)n(C1CCOCC1)c(=O)n2C` [AZD7648] + CCN(CCO)CCCOc1ccc2c(Nc3cc(CC(=O)Nc4cccc(F)c4)[nH]n3)ncnc2c1 [AZD2811], the “combination Emax” value in the assay on U-698-M [1] (setting [9]) was determined as 0.444. Further, the Bliss excess in the assay on U-698-M [2] (setting [9]) is 0.0631.
The like results for `Cc1cc2ncnn2cc1Nc1ncc2c(n1)n(C1CCOCC1)c(=O)n2C` [AZD7648] + CN(C)CCCOc1ccc(-c2ccc3ncc4c(c3c2)n(C2CCOCC2)c(=O)n4C)cn1 [AZD0156] were, in that order, 0.488 and 0.0015.
Take `Cc1cc2ncnn2cc1Nc1ncc2c(n1)n(C1CCOCC1)c(=O)n2C` [AZD7648] + COc1cc([C@@H]2c3cc4c(cc3[C@@H](O[C@@H]3O[C@@H]5CO[C@@H](C)O[C@H]5[C@H](O)[C@H]3O)[C@H]3COC(=O)[C@H]23)OCO4)cc(OC)c1O [Etoposide]: the “combination Emax” value in the assay with U-698-M [1] (setting [6]) was determined as 0.823. The Bliss excess with U-698-M [2] (setting [6]) stood at 0.0866.
For `Cc1cc2ncnn2cc1Nc1ncc2c(n1)n(C1CCOCC1)c(=O)n2C` [AZD7648] + C[C@@H]1COCCN1C2=NC(=NC(=C2)C3(CC3)[S@](=N)(=O)C)C4=C5C=CNC5=NC=C4 [AZD6738], in that order: 0.939 and -0.0006.
For the compound `Cc1cc2ncnn2cc1Nc1ncc2c(n1)n(C1CCOCC1)c(=O)n2C` [AZD7648] + O=C(c1cc(Cc2n[nH]c(=O)c3ccccc23)ccc1F)N1CCN(C(=O)C2CC2)CC1 [Olaparib], the “combination Emax” value in the assay with U-698-M [1] (setting [6]) is 0.343. In addition, the Bliss excess in the assay on U-698-M [2] (setting [6]) is -0.0409.
The like results for `C[C@@H](Nc1cc(F)cc(F)c1)c1cc(C(=O)N(C)C)cc2c(=O)cc(N3CCOCC3)oc12` [AZD8186] + C1CN(CCC1(C(=O)N[C@@H](CCO)C2=CC=C(C=C2)Cl)N)C3=NC=NC4=C3C=CN4 [AZD5363] were, in that order, 0.349 and -0.0592.
